Experimental findings from patent publication US20110144159A1, “ETHER BENZYLIDENE PIPERIDINE ARYL CARBOXAMIDE COMPOUNDS USEFUL AS FAAH INHIBITORS” (Pfizer Inc, priority 2008, published 2011) are described below.

The target of this assay is T1, Human FAAH (Homo sapiens, UniProt O00519).
T1 construct: made in house
T1 sequence (O00519 32-579 limits assumed): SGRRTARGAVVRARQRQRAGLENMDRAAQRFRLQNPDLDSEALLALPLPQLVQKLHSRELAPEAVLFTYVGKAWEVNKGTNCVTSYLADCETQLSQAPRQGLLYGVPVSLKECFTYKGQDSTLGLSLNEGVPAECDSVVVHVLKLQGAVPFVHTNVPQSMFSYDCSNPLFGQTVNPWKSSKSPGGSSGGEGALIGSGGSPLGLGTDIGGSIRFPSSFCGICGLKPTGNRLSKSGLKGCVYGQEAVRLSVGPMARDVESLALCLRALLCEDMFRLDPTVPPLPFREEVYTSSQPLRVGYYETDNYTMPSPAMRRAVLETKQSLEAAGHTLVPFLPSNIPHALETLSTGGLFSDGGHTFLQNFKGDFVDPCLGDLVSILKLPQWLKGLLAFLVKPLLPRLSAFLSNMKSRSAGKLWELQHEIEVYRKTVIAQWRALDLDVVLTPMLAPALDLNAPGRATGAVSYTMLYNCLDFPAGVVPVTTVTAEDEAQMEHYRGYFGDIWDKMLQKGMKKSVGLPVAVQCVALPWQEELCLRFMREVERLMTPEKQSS
Nature of the assay: FAAH assay (glutamate dehydrogenase-coupled, oleamide substrate, absorbance at 340 nm). Conditions: irreversible inhibition potency. It counts as biochemical. The method, then: A FAAH assay may be carried out in 384-well clear polystyrene plates in a total volume of 50 μl per well. All percents are by volume. To each well was placed the reaction mixture (40 μl) containing 1-4 nM FAAH, 50 mM NaPi, pH 7.4, 3 mM α-ketoglutarate, 0.15 mM NADH, 7.5 U/ml glutamate dehydrogenase, 2 mM ADP, 1 mM EDTA, and 0.1% Triton X-100 (The concentration shown for each component was the final concentration in the assay). To this mixture was added 5 μl of a compound of Examples 1 to 20 at various concentrations prepared in 50% DMSO (or 5 μl 50% DMSO for controls). This was immediately followed by the addition of 5 μl oleamide (500 μM) dissolved in 75% EtOH/25% DMSO and the reaction mixture was mixed for 1.5 min. The final concentrations of DMSO and EtOH in the assay are each 7.5%. The reactions was then incubated at 30° C. and the absorbance at 340 nm was collected over a period of 90 min with readings taken in 30-second intervals using SpectraMax Plus^384 Microplate Spectrophotometer (Molecular Devices, Sunnyvale, Calif.). Human FAAH used in the assay was prepared as described in the patent application WO 2006/067613. The purity of the enzyme used was greater than 98% based on an analysis by SDS-polyacrylamide gel electrophoresis followed by Coomassie Blue staining.
Initial velocity data (V) is obtained from the slopes of the initial progressive curves. They are plotted as a function of substrate concentration and fit to the Michaelis-Menten equation (1) using Prism (GraphPad Software, Inc., San Diego, Calif.) software to obtain Km and Vmax values.
To obtain potencies of irreversible inhibitors, progressive curves consistent with first order inhibition kinetics (two-step irreversible inhibition mechanism) are fit to equation (2) by nonlinear least squares regressions to determine kobs values at each inhibitor concentration, where [P]t is the absorbance at time t, V0 is a constant related to the steady state rate of the uninhibited reaction, and kobs is the first order rate constant for enzyme inactivation. The inhibitor dissociation constant (Ki) and the first order rate
constant of enzyme inactivation at infinite inhibitor concentration (kinact) are then obtained by fitting the kobs vs. [I] curves to equation (3).

For `O=C(Nc1cccnn1)N1CCC(=Cc2cccc(OC3CCCOC3)c2)CC1` (stereo not shown) [Example 19, N-pyridazin-3-yl-4-[3-(tetrahydro-2H-pyran-3-yloxy)benzylidene]piperidine-1-carboxamide], the “hFAAH KInact/K” value worked out at 783 M⁻¹ s⁻¹.
The same measure for `O=C(Nc1cccnn1)N1CCC(=Cc2cccc(OCc3nccs3)c2)CC1` [Example 68, N-pyridazin-3-yl-4-[3-(1,3-thiazol-2-ylmethoxy)benzylidene]piperidine-1-carboxamide]: 452 M⁻¹ s⁻¹.
For `O=C(Nc1cccnn1)N1CCC(=Cc2cccc(OCCc3ccccn3)c2)CC1` [Example 87, N-pyridazin-3-yl-4-[3-(2-pyridin-2-ylethoxy)benzylidene]piperidine-1-carboxamide] the value was 3485 M⁻¹ s⁻¹; for “N-pyridazin-3-yl-4-[3-(pyridin-2-ylmethoxy)benzylidene]piperidine-1-carboxamide [Example 46]”, 353 M⁻¹ s⁻¹.
For `CC(C)CCOc1cccc(C=C2CCN(C(=O)Nc3cccnn3)CC2)c1` [Example 62, 4-[3-(3-methylbutoxy)benzylidene]-N-pyridazin-3-ylpiperidine-1-carboxamide] the value was 15200 M⁻¹ s⁻¹; for `CC1CCC(Oc2cccc(C=C3CCN(C(=O)Nc4cccnn4)CC3)c2)CC1` (stereo not shown) [Example 39, 4-{3-[(4-methylcyclohexyl)oxy]benzylidene}-N-pyridazin-3-ylpiperidine-1-carboxamide], 2090 M⁻¹ s⁻¹; for `CCC(C)Oc1cccc(C=C2CCN(C(=O)Nc3cccnc3)CC2)c1` (stereo not shown) [Example 24, 4-(3-sec-butoxybenzylidene)-N-pyridin-3-ylpiperidine-1-carboxamide], 758 M⁻¹ s⁻¹.
As to `O=C(Nc1cccnn1)N1CCC(=Cc2cccc(OC3CC3)c2)CC1` [Example 33, 4-[3-(cyclopropyloxy)benzylidene]-N-pyridazin-3-ylpiperidine-1-carboxamide], the “hFAAH KInact/K” value is 1730 M⁻¹ s⁻¹.
The same measure for `O=C(Nc1cccnn1)N1CCC(=Cc2cccc(OCC3CCCCO3)c2)CC1` (stereo not shown) [Example 104, N-pyridazin-3-yl-4-[3-(tetrahydro-2H-pyran-2-ylmethoxy)benzylidene]piperidine-1-carboxamide]: 4050 M⁻¹ s⁻¹; for `O=C(Nc1cccnn1)N1CCC(=Cc2cccc(OCC3CCCC3)c2)CC1` [Example 86, 4-[3-(cyclopentylmethoxy)benzylidene]-N-pyridazin-3-ylpiperidine-1-carboxamide]: 6267 M⁻¹ s⁻¹; for `CC(COc1cccc(C=C2CCN(C(=O)Nc3cccnn3)CC2)c1)CC(F)(F)F` (stereo not shown) [Example 99, N-pyridazin-3-yl-4-[3-(4,4,4-trifluoro-2-methylbutoxy)benzylidene]piperidine-1-carboxamide]: 10896 M⁻¹ s⁻¹.
The same measure for `CO[C@@H](COc1cccc(C=C2CCN(C(=O)Nc3cccnn3)CC2)c1)c1ccccc1` [Example 58, 4-{3-[(2R)-2-methoxy-2-phenylethoxy]benzylidene}-N-pyridazin-3-ylpiperidine-1-carboxamide]: 473 M⁻¹ s⁻¹; for `CCCCOc1cccc(C=C2CCN(C(=O)Nc3cccnn3)CC2)c1` [Example 51, 4-(3-butoxybenzylidene)-N-pyridazin-3-ylpiperidine-1-carboxamide]: 8350 M⁻¹ s⁻¹.
The same measure for `CCCC(C)Oc1cccc(C=C2CCN(C(=O)Nc3cccnc3)CC2)c1` (stereo not shown) [Example 34, 4-[3-(1-methylbutoxy)benzylidene]-N-pyridin-3-ylpiperidine-1-carboxamide]: 1810 M⁻¹ s⁻¹.
With `O=C(Nc1cccnn1)N1CCC(=Cc2cccc(OCCc3ccsc3)c2)CC1` [Example 78, N-pyridazin-3-yl-4-{3-[2-(3-thienyl)ethoxy]benzylidene}piperidine-1-carboxamide], the “hFAAH KInact/K” value was 35803 M⁻¹ s⁻¹.
For the molecule `CCC(Oc1cccc(C=C2CCN(C(=O)Nc3cccnn3)CC2)c1)C(C)C` (stereo not shown) [Example 64, 4-[3-(1-ethyl-2-methylpropoxy)benzylidene]-N-pyridazin-3-ylpiperidine-1-carboxamide], the “hFAAH KInact/K” value came to 379 M⁻¹ s⁻¹.
The same measure for “4-{3-[2-(3-methoxyphenyl)ethoxy]benzylidene}-N-pyridazin-3-ylpiperidine-1-carboxamide [Example 85]”: 7770 M⁻¹ s⁻¹; for `CC1CCCC(Oc2cccc(C=C3CCN(C(=O)Nc4cccnn4)CC3)c2)C1` (stereo not shown) [Example 38, 4-{3-[(3-methylcyclohexyl)oxy]benzylidene}-N-pyridazin-3-ylpiperidine-1-carboxamide]: 1090 M⁻¹ s⁻¹.
The same measure for `CCCC(CC)Oc1cccc(C=C2CCN(C(=O)Nc3cccnc3)CC2)c1` (stereo not shown) [Example 42, 4-[3-(1-ethylbutoxy)benzylidene]-N-pyridin-3-ylpiperidine-1-carboxamide]: 551 M⁻¹ s⁻¹; for `CC(C)(C)CCOc1cccc(C=C2CCN(C(=O)Nc3cccnn3)CC2)c1` [Example 48, 4-[3-(3,3-dimethylbutoxy)benzylidene]-N-pyridazin-3-ylpiperidine-1-carboxamide]: 2580 M⁻¹ s⁻¹.
For `O=C(Nc1cccnn1)N1CCC(=Cc2cccc(OCCc3cccc(F)c3)c2)CC1` [Example 89, 4-{3-[2-(3-fluorophenyl)ethoxy]benzylidene}-N-pyridazin-3-ylpiperidine-1-carboxamide] the value was 25980 M⁻¹ s⁻¹; for `O=C(Nc1cccnn1)N1CCC(=Cc2cccc(OCC3CCC(F)(F)CC3)c2)CC1` [Example 82, 4-{3-[(4,4-difluorocyclohexyl)methoxy]benzylidene}-N-pyridazin-3-ylpiperidine-1-carboxamide], 6850 M⁻¹ s⁻¹.
Turning to `CC1CN(CCOc2cccc(C=C3CCN(C(=O)Nc4cccnn4)CC3)c2)CC(C)O1` (stereo not shown) [Example 102, 4-{3-[2-(2,6-dimethylmorpholin-4-yl)ethoxy]benzylidene}-N-pyridazin-3-ylpiperidine-1-carboxamide], the “hFAAH KInact/K” value was determined as 207 M⁻¹ s⁻¹.
The same measure for `CCC(CC)Oc1cccc(C=C2CCN(C(=O)Nc3cccnn3)CC2)c1` [Example 27, 4-[3-(1-ethylpropoxy)benzylidene]-N-pyridazin-3-ylpiperidine-1-carboxamide]: 1030 M⁻¹ s⁻¹; for `CC1CCCC(Oc2cccc(C=C3CCN(C(=O)Nc4cccnc4)CC3)c2)C1` (stereo not shown) [Example 32, 4-{3-[(3-methylcyclohexyl)oxy]benzylidene}-N-pyridin-3-ylpiperidine-1-carboxamide]: 712 M⁻¹ s⁻¹.
For `CC(C)Oc1cccc(C=C2CCN(C(=O)Nc3cccnc3)CC2)c1` [Example 37, 4-(3-isopropoxybenzylidene)-N-pyridin-3-ylpiperidine-1-carboxamide] the value was 1380 M⁻¹ s⁻¹; for `CC(C)OCCOc1cccc(C=C2CCN(C(=O)Nc3cccnn3)CC2)c1` [Example 47, 4-[3-(2-isopropoxyethoxy)benzylidene]-N-pyridazin-3-ylpiperidine-1-carboxamide], 11900 M⁻¹ s⁻¹.
For `CC1(COc2cccc(C=C3CCN(C(=O)Nc4cccnn4)CC3)c2)CC1` [Example 93, 4-{3-[(1-methylcyclopropyl)methoxy]benzylidene}-N-pyridazin-3-ylpiperidine-1-carboxamide] the value was 2090 M⁻¹ s⁻¹.
